From the NIST ThermoML archive (doi:10.1016/j.jct.2015.08.014)

Experiment: xn = mol fraction of the nth substance listed
Conditions: 283.15 K, 100 kPa, Liquid, Alternating current cell with electrodes

CCCC[N+]1(C)CCCC1.N#CN=C=[N-] [1-butyl-1-methylpyrrolidinium dicyanamide] + O=C1CCCO1
electrical conductivity [S/m]
Conditions	Frequency=0.003 MHz	Frequency=0.00347222 MHz	Frequency=0.004 MHz	Frequency=0.00446429 MHz	Frequency=0.005 MHz	Frequency=0.005454 MHz	Frequency=0.006 MHz	Frequency=0.00652174 MHz	Frequency=0.00694444 MHz	Frequency=0.0075 MHz
x1 = 0.0463	–	1.17	1.17	1.17	1.17	1.17	1.17	1.17	1.17	1.17
x1 = 0.0987	–	1.73	1.73	1.73	1.73	1.73	1.73	1.73	1.73	1.73
x1 = 0.1449	–	1.93	1.93	1.93	1.93	1.93	1.93	1.93	1.93	1.93
x1 = 0.1859	2.028	2.028	2.028	2.028	2.028	2.028	2.028	2.028	2.028	2.028
x1 = 0.2493	1.925	1.925	1.926	1.926	1.926	1.926	1.926	1.926	1.926	1.926
x1 = 0.3029	1.84	1.84	1.84	1.84	1.84	1.84	1.84	1.84	1.84	1.84
x1 = 0.3845	1.66	1.66	1.66	1.66	1.66	1.66	1.66	1.66	1.66	1.66
x1 = 0.4985	1.407	1.407	1.407	1.407	1.407	1.407	1.407	1.407	1.407	1.407
x1 = 0.6954	1.07	1.07	1.07	1.07	1.07	1.07	1.07	1.07	1.07	1.07
x1 = 0.9013	0.849	0.849	0.849	0.849	0.849	0.849	0.849	0.849	0.849	0.849
x1 = 1	0.786	0.786	0.786	0.786	0.786	0.786	0.786	0.786	0.786	0.786
